Counter-ions that a name gives are not always drawn. Like-named read-outs stand apart in the source and are kept apart here.
Experiments:
Assay type in all cases: cell-based
[1] = target: HER2 (A775_G776insYVMA) expressing Ba/F3 stable cell line (Homo sapiens, UniProt P04626, DUP772-775, cells depend on it); experiment: Cellular proliferation (Alamar Blue) assay, HER2 A775_G776insYVMA Ba/F3; details: 72 hr, read-out: YVMA IC50
Method in brief: (§1)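 Seventy-two-hour compound exposure (3-fold series, final 10–0.0005 μM) of mutant EGFR/HER2 Ba/F3 cells plated at 15,000/well in RPMI with 10% FBS. Alamar Blue added for 3 h at 37 °C as proliferation read-out.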

[2] = target: EGFR (H773insNPH) expressing Ba/F3 stable cell line (Homo sapiens, UniProt P00533, DUP771-773, cells depend on it); experiment: Cellular proliferation (Alamar Blue) assay, EGFR H773insNPH Ba/F3; details: 72 hr, read-out: NPH IC50
Method: • 1. EGFR(D770_N771insSVD) expressing Ba/F3 stable cell line • 2. EGFR (A767_dupASV) expressing Ba/F3 stable cell line • 3. A431 cells • 4. EGFR (H773insNPH) expressing Ba/F3 stable cell line • 5. HER2 (A775_G776insYVMA) expressing Ba/F3 stable cell line Assay Procedure: • 1. Seed cells at 5000 for A431 and 15,000 cells for Ba/F3 in 100 μL/well in complete media (for A431: DMEM with […] and for Ba/F3 cells: RPMI with 10% FBS) in 96-well tissue culture plate. Leave outer wells without cells for background measurements. Incubate at 37 degree Celsius in […] humidified incubator for 16-18 hours. • 2. Add 0.025 ml of 5× concentration compound dilution or DMSO control. Final compound concentration range is 10-0.0005 μM prepared in 3-fold serial dilutions. Incubate for 72 hr at 37 degree Celsius in […] humidified incubator. • 3. Add 0.0125 ml Alamar Blue™ reagent to each well with multi-channel pipette and tap gently on each side of the plate to mix. Incubate for 3 hours at 37 degree Celsius in 5% CO2 humidified incubator. • 4. […] Data analysis was performed using XLfit 5.5.0.5.

[3] = target: EGFR(D770_N771insSVD) expressing Ba/F3 stable cell line (Homo sapiens, UniProt P00533, DUP768-770, cells depend on it); experiment: Cellular proliferation (Alamar Blue) assay, EGFR D770_N771insSVD Ba/F3; details: 72 hr, read-out: D770 IC50
Method in brief: as §1

[4] = target: EGFR (A767_dupASV) expressing Ba/F3 stable cell line (Homo sapiens, UniProt P00533, DUP767-769, cells depend on it); experiment: Cellular proliferation (Alamar Blue) assay, EGFR A767_dupASV Ba/F3; details: 72 hr, read-out: A767 IC50
Method in brief: as §1

[5] = tested on: A431 cells; experiment: Cellular proliferation (Alamar Blue) assay, A431
[6] = Homo sapiens, A-431; A431 cells, Alamar Blue, 72 hr; read-out: A431 IC50
[7] = Homo sapiens, A-431; A431 cells, 72 hr, Alamar Blue; read-out: A431 IC50

Chain of HER2 (A775_G776insYVMA) expressing Ba/F3 stable cell line (P04626 with tags, fused parts or gaps DUP772-775): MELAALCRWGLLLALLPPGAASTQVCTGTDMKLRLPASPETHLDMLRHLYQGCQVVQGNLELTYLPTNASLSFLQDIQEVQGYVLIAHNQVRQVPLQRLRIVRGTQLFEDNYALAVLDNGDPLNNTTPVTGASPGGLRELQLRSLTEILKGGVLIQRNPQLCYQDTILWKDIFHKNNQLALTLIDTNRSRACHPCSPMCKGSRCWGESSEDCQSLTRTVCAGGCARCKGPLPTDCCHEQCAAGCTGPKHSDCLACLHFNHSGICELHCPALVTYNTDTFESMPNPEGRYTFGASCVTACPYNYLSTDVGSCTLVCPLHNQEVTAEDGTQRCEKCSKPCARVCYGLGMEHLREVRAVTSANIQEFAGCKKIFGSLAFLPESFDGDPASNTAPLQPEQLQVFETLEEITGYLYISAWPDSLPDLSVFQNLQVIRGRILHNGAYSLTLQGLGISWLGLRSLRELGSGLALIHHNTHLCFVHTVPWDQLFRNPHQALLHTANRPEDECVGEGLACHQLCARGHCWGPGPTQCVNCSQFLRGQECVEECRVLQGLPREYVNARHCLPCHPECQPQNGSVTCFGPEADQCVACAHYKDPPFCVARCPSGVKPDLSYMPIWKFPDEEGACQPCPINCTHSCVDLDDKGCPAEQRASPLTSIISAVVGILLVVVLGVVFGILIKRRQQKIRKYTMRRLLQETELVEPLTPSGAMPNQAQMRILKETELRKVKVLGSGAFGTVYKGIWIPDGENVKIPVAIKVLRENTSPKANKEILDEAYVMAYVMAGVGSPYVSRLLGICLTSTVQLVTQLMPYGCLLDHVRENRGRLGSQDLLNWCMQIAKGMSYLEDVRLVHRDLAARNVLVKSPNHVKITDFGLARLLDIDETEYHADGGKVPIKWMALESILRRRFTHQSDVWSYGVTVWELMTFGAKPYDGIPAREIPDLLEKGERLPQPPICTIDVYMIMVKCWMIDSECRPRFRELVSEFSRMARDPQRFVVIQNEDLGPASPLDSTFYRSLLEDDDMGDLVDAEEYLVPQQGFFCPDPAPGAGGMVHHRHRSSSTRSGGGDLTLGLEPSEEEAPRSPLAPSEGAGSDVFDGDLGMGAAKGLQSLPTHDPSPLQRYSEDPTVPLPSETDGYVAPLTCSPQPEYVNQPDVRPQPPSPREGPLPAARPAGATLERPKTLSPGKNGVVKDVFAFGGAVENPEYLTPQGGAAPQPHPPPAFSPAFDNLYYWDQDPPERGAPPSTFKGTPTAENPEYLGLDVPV
Chain of EGFR (H773insNPH) expressing Ba/F3 stable cell line (P00533 with tags, fused parts or gaps DUP771-773): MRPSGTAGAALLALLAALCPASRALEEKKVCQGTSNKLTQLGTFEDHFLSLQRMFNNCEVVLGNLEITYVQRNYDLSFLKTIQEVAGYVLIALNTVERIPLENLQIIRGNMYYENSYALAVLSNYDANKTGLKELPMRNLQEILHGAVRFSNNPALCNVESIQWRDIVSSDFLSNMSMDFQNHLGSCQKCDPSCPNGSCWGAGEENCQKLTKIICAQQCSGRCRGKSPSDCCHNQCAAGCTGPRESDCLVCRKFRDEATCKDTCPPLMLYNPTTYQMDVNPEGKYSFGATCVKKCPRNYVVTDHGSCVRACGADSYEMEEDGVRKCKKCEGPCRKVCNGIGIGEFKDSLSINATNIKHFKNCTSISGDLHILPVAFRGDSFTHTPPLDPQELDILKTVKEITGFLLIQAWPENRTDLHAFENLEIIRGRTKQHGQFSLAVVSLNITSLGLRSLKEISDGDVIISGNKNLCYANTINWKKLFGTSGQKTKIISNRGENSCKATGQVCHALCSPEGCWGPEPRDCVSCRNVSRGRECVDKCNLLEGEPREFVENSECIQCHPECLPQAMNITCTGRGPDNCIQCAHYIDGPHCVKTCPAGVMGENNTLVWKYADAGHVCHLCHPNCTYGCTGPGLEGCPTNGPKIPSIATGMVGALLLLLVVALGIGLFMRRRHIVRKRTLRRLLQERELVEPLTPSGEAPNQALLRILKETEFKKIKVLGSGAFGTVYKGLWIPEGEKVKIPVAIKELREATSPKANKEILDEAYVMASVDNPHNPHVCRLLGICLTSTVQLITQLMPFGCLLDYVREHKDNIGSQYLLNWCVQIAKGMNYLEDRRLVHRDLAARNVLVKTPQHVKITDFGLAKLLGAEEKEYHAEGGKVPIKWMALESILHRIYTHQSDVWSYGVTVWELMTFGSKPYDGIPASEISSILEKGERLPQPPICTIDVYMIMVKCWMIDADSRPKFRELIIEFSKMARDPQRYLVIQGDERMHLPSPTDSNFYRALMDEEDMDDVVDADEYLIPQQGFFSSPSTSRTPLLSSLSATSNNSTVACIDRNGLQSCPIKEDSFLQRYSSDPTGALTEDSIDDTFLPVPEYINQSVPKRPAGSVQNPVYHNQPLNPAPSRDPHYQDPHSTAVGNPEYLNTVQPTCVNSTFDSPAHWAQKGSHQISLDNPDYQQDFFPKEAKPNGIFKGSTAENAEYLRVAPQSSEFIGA
Chain of EGFR (A767_dupASV) expressing Ba/F3 stable cell line (P00533 with tags, fused parts or gaps DUP767-769): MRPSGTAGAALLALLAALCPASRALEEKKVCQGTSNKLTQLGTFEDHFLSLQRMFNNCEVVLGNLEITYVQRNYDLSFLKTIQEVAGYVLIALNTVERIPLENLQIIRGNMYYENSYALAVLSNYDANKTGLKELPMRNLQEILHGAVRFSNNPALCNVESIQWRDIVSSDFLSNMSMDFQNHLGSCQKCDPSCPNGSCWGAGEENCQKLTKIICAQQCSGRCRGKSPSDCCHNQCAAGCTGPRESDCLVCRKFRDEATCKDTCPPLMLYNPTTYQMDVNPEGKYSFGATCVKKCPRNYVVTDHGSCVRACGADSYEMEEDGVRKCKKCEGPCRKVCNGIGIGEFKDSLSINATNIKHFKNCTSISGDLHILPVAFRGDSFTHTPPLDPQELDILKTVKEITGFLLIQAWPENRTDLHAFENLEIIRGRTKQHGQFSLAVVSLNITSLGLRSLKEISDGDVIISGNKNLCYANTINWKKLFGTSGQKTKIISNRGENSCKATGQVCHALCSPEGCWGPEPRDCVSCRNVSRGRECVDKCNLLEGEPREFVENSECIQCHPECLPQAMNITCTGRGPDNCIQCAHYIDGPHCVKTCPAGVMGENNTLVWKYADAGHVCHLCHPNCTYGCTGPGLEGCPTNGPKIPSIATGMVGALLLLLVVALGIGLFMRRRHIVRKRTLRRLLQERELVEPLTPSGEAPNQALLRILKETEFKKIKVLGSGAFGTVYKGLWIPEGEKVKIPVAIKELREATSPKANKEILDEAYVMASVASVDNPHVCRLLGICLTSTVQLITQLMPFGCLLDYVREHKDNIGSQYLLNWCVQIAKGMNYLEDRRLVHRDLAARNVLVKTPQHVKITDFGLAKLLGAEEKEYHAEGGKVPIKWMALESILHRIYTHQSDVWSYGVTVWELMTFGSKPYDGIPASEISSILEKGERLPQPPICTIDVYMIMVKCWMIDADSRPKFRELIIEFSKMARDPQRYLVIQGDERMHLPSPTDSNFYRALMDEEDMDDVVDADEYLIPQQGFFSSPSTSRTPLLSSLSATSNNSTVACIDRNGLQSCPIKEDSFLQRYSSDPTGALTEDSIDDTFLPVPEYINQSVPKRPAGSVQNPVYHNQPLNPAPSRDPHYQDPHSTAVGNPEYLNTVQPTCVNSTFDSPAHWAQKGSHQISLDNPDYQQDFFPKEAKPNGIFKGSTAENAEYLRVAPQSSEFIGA
Chain of EGFR(D770_N771insSVD) expressing Ba/F3 stable cell line (P00533 with tags, fused parts or gaps DUP768-770): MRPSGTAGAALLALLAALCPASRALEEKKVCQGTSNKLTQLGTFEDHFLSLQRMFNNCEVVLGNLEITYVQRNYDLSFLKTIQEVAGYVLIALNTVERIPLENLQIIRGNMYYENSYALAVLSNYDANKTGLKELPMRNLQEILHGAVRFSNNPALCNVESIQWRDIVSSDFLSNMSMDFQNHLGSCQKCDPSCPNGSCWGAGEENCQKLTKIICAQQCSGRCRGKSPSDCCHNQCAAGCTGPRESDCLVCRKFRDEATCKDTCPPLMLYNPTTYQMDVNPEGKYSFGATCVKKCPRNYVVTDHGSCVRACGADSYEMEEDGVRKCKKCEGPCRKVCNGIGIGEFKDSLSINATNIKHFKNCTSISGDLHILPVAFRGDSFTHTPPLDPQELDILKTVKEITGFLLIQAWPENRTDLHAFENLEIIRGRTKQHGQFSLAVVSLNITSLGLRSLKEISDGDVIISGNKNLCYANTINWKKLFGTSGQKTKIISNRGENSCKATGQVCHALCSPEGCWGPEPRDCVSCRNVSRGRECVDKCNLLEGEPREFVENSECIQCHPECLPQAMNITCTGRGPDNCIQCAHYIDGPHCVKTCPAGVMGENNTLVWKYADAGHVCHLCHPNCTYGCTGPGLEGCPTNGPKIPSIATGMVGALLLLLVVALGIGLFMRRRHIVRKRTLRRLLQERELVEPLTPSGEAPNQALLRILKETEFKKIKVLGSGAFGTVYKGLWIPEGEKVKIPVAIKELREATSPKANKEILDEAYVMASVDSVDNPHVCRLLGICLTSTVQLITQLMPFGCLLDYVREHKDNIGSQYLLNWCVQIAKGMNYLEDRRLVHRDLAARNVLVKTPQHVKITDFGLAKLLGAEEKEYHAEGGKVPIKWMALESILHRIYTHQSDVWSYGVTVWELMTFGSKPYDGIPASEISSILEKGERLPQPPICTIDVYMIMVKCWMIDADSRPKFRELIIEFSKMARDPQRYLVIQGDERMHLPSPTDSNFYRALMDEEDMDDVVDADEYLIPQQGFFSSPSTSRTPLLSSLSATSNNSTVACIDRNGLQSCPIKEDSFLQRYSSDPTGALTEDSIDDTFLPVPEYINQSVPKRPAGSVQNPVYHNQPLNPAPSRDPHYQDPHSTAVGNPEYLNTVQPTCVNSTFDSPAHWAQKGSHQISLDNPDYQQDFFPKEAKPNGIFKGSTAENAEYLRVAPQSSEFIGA

SMILES: C=CC(=O)Nc1ccc(F)c(Nc2nc(Nc3cnn(C)c3)ncc2-c2ccnc(OC(F)F)c2)c1 [Compound 71, N-(3-((5-(2-(difluoromethoxy)pyridin-4-yl)-2-((1-methyl-1H-pyrazol-4-yl)amino)pyrimidin-4-yl)amino)-4-fluorophenyl)acrylamide]
- GI50 [1]: 0.226 µM
- GI50 [2]: 0.103 µM
- GI50 [3]: 0.107 µM
- GI50 [4]: 0.107 µM
- IC50 [5, 6]: 0.15 µM

SMILES: C=CC(=O)Nc1cccc(Oc2nc(Nc3cnn(C)c3)ncc2-c2ccc(OC(F)F)nc2)c1 [Compound 188, N-(3-((5-(6-(difluoromethoxy)pyridin-3-yl)-2-((1-methyl-1H-pyrazol-4-yl)amino)pyrimidin-4-yl)oxy)phenyl)acrylamide]
- GI50 [1]: 0.269 µM
- GI50 [2]: 0.3 µM
- GI50 [3]: 0.108 µM
- GI50 [4]: 0.118 µM
- IC50 [5, 6]: 0.216 µM

SMILES: C=CC(=O)Nc1ccc(F)c(Nc2nc(Nc3cnn(C)c3)ncc2-c2ccc(OC)cc2)c1 [Compound 91, N-(4-fluoro-3-((5-(4-methoxyphenyl)-2-((1-methyl-1H-pyrazol-4-yl)amino)pyrimidin-4-yl)amino)phenyl)acrylamide]
- GI50 [1]: 0.479 µM
- GI50 [2]: 0.091 µM
- GI50 [3]: 0.062 µM
- GI50 [4]: 0.108 µM
- IC50 [5, 6]: 0.95 µM

SMILES: C=CC(=O)Nc1ccc(F)c(Nc2nc(Nc3cnn(C)c3)ncc2-c2ccc(F)nc2)c1 [Compound 100, N-(4-fluoro-3-((5-(6-fluoropyridin-3-yl)-2-((1-methyl-1H-pyrazol-4-yl)amino)pyrimidin-4-yl)amino)phenyl)acrylamide]
- GI50 [1]: 0.203 µM
- GI50 [2]: 0.053 µM
- GI50 [3]: 0.038 µM
- GI50 [4]: 0.072 µM
- IC50 [5, 6]: 0.472 µM

SMILES: C=CC(=O)Nc1cccc(Nc2nc(Nc3cnn(C)c3)ncc2-c2cncc(C(F)F)c2)c1 [Compound 144, N-(3-((5-(5-(difluoromethyl)pyridin-3-yl)-2-((1-methyl-1H-pyrazol-4-yl)amino)pyrimidin-4-yl)amino)phenyl)acrylamide trifluoroacetate]
- GI50 [1]: 0.038 µM
- GI50 [2]: 0.101 µM
- GI50 [3]: 0.037 µM
- GI50 [4]: 0.07 µM
- IC50 [5, 6]: 0.122 µM

SMILES: C=CC(=O)Nc1ccc(F)c(Nc2nc(Nc3cnn(C)c3)ncc2-c2ccc(F)cc2)c1 [Compound 63, N-(4-fluoro-3-((5-(4-fluorophenyl)-2-((1-methyl-1H-pyrazol-4-yl)amino)pyrimidin-4-yl)amino)phenyl)acrylamide]
- GI50 [1]: 0.344 µM
- GI50 [2]: 0.116 µM
- GI50 [3]: 0.06 µM
- GI50 [4]: 0.102 µM
- IC50 [5, 6]: 1.28 µM

SMILES: C=CC(=O)Nc1ccc(F)c(Nc2nc(Nc3cnn(C)c3)ncc2-c2cncc(OC(F)F)c2)c1 [Compound 95, N-(3-((5-(5-(difluoromethoxy)pyridin-3-yl)-2-((1-methyl-1H-pyrazol-4-yl)amino)pyrimidin-4-yl)amino)-4-fluorophenyl)acrylamide]
- GI50 [1]: 0.101 µM
- GI50 [2]: 0.045 µM
- GI50 [3]: 0.038 µM
- GI50 [4]: 0.027 µM
- IC50 [5, 6]: 0.102 µM

SMILES: C=CC(=O)Nc1ccc(F)c(Nc2nc(Nc3cnn(C)c3)ncc2-c2cccc(C(F)(F)F)c2)c1 [Compound 89, N-[4-fluoro-3-({2-[(1-methyl-1H-pyrazol-4-yl)amino]-5-[3-(trifluoromethyl)phenyl]pyrimidin-4-yl}amino)phenyl]prop-2-enamide]
- GI50 [1]: 0.665 µM
- GI50 [2]: 0.058 µM
- GI50 [3]: 0.101 µM
- GI50 [4]: 0.106 µM
- IC50 [5, 6]: 0.084 µM

SMILES: C=CC(=O)Nc1cccc(Nc2nc(Nc3cnn(C)c3)ncc2-c2cccc(F)c2)c1 [Compound 115, N-(3-((5-(3-fluorophenyl)-2-((1-methyl-1H-pyrazol-4-yl)amino)pyrimidin-4-yl)amino)phenyl)acrylamide trifluoroacetate]
- GI50 [1]: 0.025 µM
- GI50 [2]: 0.03 µM
- GI50 [3]: 0.016 µM
- GI50 [4]: 0.039 µM
- IC50 [5, 6]: 0.1 µM

SMILES: C=CC(=O)Nc1ccc(F)c(Nc2nc(Nc3cnn(C)c3)ncc2-c2ccc(C(F)F)cc2)c1 [Compound 99, N-(3-((5-(4-(difluoromethyl)phenyl)-2-((1-methyl-1H-pyrazol-4-yl)amino)pyrimidin-4-yl)amino)-4-fluorophenyl)acrylamide]
- GI50 [1]: 0.171 µM
- GI50 [2]: 0.075 µM
- GI50 [3]: 0.037 µM
- GI50 [4]: 0.096 µM
- IC50 [5, 6]: 0.067 µM

SMILES: C=CC(=O)Nc1ccc(F)c(Nc2nc(Nc3cnn(C)c3)ncc2-c2ccc(C(F)(F)F)cc2)c1 [Compound 243, N-(4-fluoro-3-((2-((1-(methyl-^13C-d3)-1H-pyrazol-4-yl)amino)-5-(4-(trifluoromethyl)phenyl)pyrimidin-4-yl)amino)phenyl)acrylamide]
- GI50 [1]: 0.237 µM
- GI50 [2]: 0.121 µM
- GI50 [3]: 0.088 µM
- GI50 [4]: 0.135 µM
- IC50 ([5]; A431 cells, 72 hr, Alamar Blue; read-out: A431 IC50): 2.6 µM

SMILES: C=CC(=O)Nc1ccc(F)c(Nc2nc(Nc3cn(CCN(C)C)nc3Cl)ncc2-c2ccc(C(F)(F)F)cc2)c1 [Compound 221, N-(3-((2-((3-chloro-1-(2-(dimethylamino)ethyl)-1H-pyrazol-4-yl)amino)-5-(4-(trifluoromethyl)phenyl)pyrimidin-4-yl)amino)-4-fluorophenyl)acrylamide]
- GI50 [1]: 0.298 µM
- GI50 [2]: 0.225 µM
- GI50 [3]: 0.123 µM
- GI50 [4]: 0.297 µM
- IC50 [5, 7]: 0.068 µM

SMILES: C=CC(=O)Nc1ccc(F)c(Nc2nc(Nc3cnn(CCN(C)C)c3)ncc2-c2ccc(C(F)(F)F)cc2)c1 [Compound 72, N-(3-((2-((1-(2-(dimethylamino)ethyl)-1H-pyrazol-4-yl)amino)-5-(4-(trifluoromethyl)phenyl)pyrimidin-4-yl)amino)-4-fluorophenyl)acrylamide trifluoroacetate]
- GI50 [1]: 0.129 µM
- GI50 [2]: 0.095 µM
- GI50 [3]: 0.099 µM
- GI50 [4]: 0.108 µM
- IC50 [5, 6]: 0.08 µM

SMILES: C=CC(=O)Nc1cncc(Nc2nc(Nc3cnn(C)c3)ncc2-c2ccc(C(F)(F)F)cc2)c1 [Compound 195, N-(5-((2-((1-methyl-1H-pyrazol-4-yl)amino)-5-(4-(trifluoromethyl)phenyl)pyrimidin-4-yl)amino)pyridin-3-yl)acrylamide]
- GI50 [1]: 0.258 µM
- GI50 [2]: 0.18 µM
- GI50 [3]: 0.057 µM
- GI50 [4]: 0.135 µM
- IC50 [5, 6]: 0.524 µM

SMILES: C=CC(=O)Nc1ccc(F)c(Nc2nc(Nc3cnn(C4CCN(C)CC4)c3)ncc2-c2ccc(C(F)(F)F)cc2)c1 [Compound 85, N-(4-fluoro-3-((2-((1-(1-methylpiperidin-4-yl)-1H-pyrazol-4-yl)amino)-5-(4-(trifluoromethyl)phenyl)pyrimidin-4-yl)amino)phenyl)acrylamide]
- GI50 [1]: 0.378 µM
- GI50 [2]: 0.119 µM
- GI50 [3]: 0.109 µM
- GI50 [4]: 0.249 µM
- IC50 [5, 6]: 5.44 µM

SMILES: C=CC(=O)Nc1ccc(F)c(Nc2nc(Nc3cnn(C4CCN(C)CC4)c3)ncc2Cl)c1 [Compound 14, N-(3-((5-chloro-2-((1-(1-methylpiperidin-4-yl)-1H-pyrazol-4-yl)amino)pyrimidin-4-yl)amino)-4-fluorophenyl)acrylamide]
- GI50 [1]: 0.756 µM
- GI50 [2]: 0.192 µM
- GI50 [3]: 0.32 µM
- GI50 [4]: 0.17 µM
- IC50 [5, 6]: 1.83 µM

SMILES: C=CC(=O)Nc1cccc(Oc2nc(Nc3cnn(C)c3)ncc2-c2ccc(F)nc2)c1 [Compound 109, N-(3-((5-(6-fluoropyridin-3-yl)-2-((1-methyl-1H-pyrazol-4-yl)amino)pyrimidin-4-yl)oxy)phenyl)acrylamide]
- GI50 [1]: 0.344 µM
- GI50 [2]: 0.112 µM
- GI50 [3]: 0.1 µM
- GI50 [4]: 0.053 µM
- IC50 [5, 6]: 0.613 µM

SMILES: [2H]C([2H])=CC(=O)Nc1ccc(F)c(Nc2nc(Nc3cnn(C([2H])([2H])[2H])c3)ncc2-c2ccc(C(F)(F)F)cc2)c1 [Compound 248, N-(4-fluoro-3-((2-((1-(methyl-d3)-1H-pyrazol-4-yl)amino)-5-(4-(trifluoromethyl)phenyl)pyrimidin-4-yl)amino)phenyl)acrylamide-3,3-d2]
- GI50 [1]: 0.25 µM
- GI50 [2]: 0.043 µM
- GI50 [3]: 0.109 µM
- GI50 [4]: 0.143 µM
- IC50 [5, 7]: 0.222 µM

SMILES: C=CC(=O)Nc1ccc(F)c(Nc2nc(Nc3cnn(C)c3)ncc2-c2ccc(OC(F)F)cc2)c1 [Compound 140, N-(3-((5-(4-(difluoromethoxy)phenyl)-2-((1-methyl-1H-pyrazol-4-yl)amino)pyrimidin-4-yl)amino)-4-fluorophenyl)acrylamide]
- GI50 [1]: 0.269 µM
- GI50 [2]: 0.058 µM
- GI50 [3]: 0.032 µM
- GI50 [4]: 0.034 µM
- IC50 [5, 6]: 0.022 µM

— patent US12686673B2 (Blueprint Medicines Corporation, priority 2020, dated 2026)
